# Measured values reported in US20240423961A1, “1H-1,2,3-TRIAZOLE-4-CARBOXYLIC ACIDS FOR TREATMENT OF HYPEROXALURIA AND KIDNEY STONES” (CANTERO THERAPEUTICS, INC., priority 2021, published 2024).
# Assays:
# [1] = Phase 1 SAD/MAD study: safety and tolerability (adverse events, vital signs, ECG, laboratory tests); type: in vivo, human
# Procedure: A Phase 1 clinical study is performed to assess the safety and dosing of Compound 1a. This Phase 1 study consists of two parts. In Part A, healthy adults randomized 3:1 (active:placebo) receive a single dose of orally administered Compound 1a or matching placebo in six (6) ascending dose groups. In Part B, healthy adults randomized 3:1 (active:placebo) received multiple doses of orally administered Compound 1a or matching placebo in six (6) ascending dose groups. Safety and tolerability were assessed by the incidence of adverse events, vital signs, electrocardiograms, and clinical laboratory tests. Pharmacokinetics and pharmacodynamics (changes in plasma and urine glycolate) were measured using validated bioanalytical assays.
# Study Design: The study was approved by the Advarra Institutional Review Board (Columbia, MD). All participants provided written informed consent. The trial was conducted at a single center (Celerion, Tempe, Arizona) according to the Good Clinical Practice guidelines of the International Conference on Harmonization and the World Health Organization Declaration of Helsinki. The study was a randomized, double-blind, placebo-controlled, single and multiple ascending dose study. The primary objective of the study was to evaluate the safety and tolerability of single and multiple doses of Compound 1a administered to healthy adult volunteers. The secondary objectives were to characterize the pharmacokinetics (PK) of Compound 1a and to describe the pharmacodynamic (PD) properties in healthy adult volunteers. The study also evaluated the effect of food on the PK of Compound 1a.
# Subject disposition: Six cohorts of 6 to 8 subjects each (N=up to 48) were administered single doses of 40, 120, 360, 1,000, 2,000, and 3,000 mg of Compound 1a in Part A under fasting conditions. Following a 2-week washout, subjects in the 1,000 mg cohort were administered a second 1,000 mg single dose following a high-fat breakfast. Six cohorts of 8 healthy subjects each were administered multiple doses of 75 mg […] (qd), 125 mg every 12 hours (q12 h), 500 mg q12 h, 500 mg qd, 750 mg qd, and 1,000 mg qd for 7 days in the MAD Part B (FIG. 1).
# glycolate oxidase (GO) [2] = target: T1, glycolate oxidase (GO) (Homo sapiens, UniProt Q9UJM8); assay: Phase 1 SAD/MAD study: plasma glycolate as measure of target engagement; type: in vivo
# T1 construct: healthy adult volunteers received single doses of Compound 1a; from tissue; host or cells: liver of healthy adult human volunteers (in vivo, Phase 1 study)
# T1 sequence (Q9UJM8 1-370): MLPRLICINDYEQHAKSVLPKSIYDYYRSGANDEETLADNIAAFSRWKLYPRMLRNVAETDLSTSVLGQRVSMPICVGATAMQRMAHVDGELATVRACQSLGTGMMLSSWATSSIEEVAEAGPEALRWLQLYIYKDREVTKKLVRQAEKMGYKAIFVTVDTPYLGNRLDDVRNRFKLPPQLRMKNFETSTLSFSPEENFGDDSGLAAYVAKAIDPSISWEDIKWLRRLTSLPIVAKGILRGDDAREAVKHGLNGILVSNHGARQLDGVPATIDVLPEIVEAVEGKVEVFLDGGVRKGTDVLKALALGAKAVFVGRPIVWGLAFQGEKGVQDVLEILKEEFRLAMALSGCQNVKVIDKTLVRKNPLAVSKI
# Procedure: Pharmacodynamics: Acidified human K2-EDTA plasma samples were analyzed for oxalic acid and glycolic acid by a validated method over a range of 8.00 to 120 μM for oxalic acid and 5.00 to 625 μM for glycolic acid based on the analysis of 50 μL of sample. Human plasma containing oxalic acid, glycolic acid and internal standards, ^13C2-oxalic acid and D2-glycolic acid, was derivatized after protein precipitation then extracted using liquid-liquid extraction and analyzed by a Sciex API 4000 LC-MS-MS equipped with an HPLC column. The peak area of the m/z 224.1→152.1 oxalic acid product ion was measured against the peak area of the m/z 226.1→152.1 13C2-oxalic acid internal standard product ion. The peak area of the m/z 210.1→107.0 glycolic acid product ion was measured against the peak area of the m/z 212.1→107.0 D2-glycolic acid internal standard product ion. Quantitation was performed using a weighted 1/x2 linear least squares regression analysis generated from calibration standards prepared on the day of extraction.
# Pharmacodynamics of Compound 1a: As a measure of target engagement, plasma glycolate levels were assessed in Part A and Part B. In Part A, healthy adult volunteers received single doses of Compound 1a at 40, 120, 360, 1,000, 2,000, and 3,000 mg with increases in plasma glycolate observed (FIG. 3A). At all doses, mean maximal plasma glycolate concentrations exceeded the upper limit of normal (ULN) of 14 μM, reaching a mean maximum concentration of >90 μM at doses above 1,000 mg, which was sustained for 24 hours. Median time to recovery (plasma glycolate less than or equal to ULN) after a single dose was less than 72 hours.
# In Part B, healthy adult volunteers received multiple doses of Compound 1a at 75 mg qd, 125 mg q12 h, 500 mg q12 h, 500 mg qd, 750 mg qd, and 1000 mg qd. As with Part A, mean maximal plasma glycolate concentrations exceeded the ULN at all doses on day 1 to a range of 50 to 100 μM and further increased on day 7 to a range of 100 to 200 μM.
# glycolate oxidase (GO) [3] = target: T1, glycolate oxidase (GO); assay: Pharmacokinetic-pharmacodynamic (PK/PD) modeling of GO inhibition; settings: PK/PD modeling of Phase 1 data
# Text: This study provides dosing and safety information for Compound 1a in patients with PH1 and recurrent stone formers with hyperoxaluria due to hepatic overproduction of oxalate. Pharmacokinetic data supports once daily administration of Compound 1a and rapid onset of action. […] Details of the study are presented in Example 2.
# [4] = Part A single ascending dose, 40 mg (n = 7)
# [5] = Part A single ascending dose, 120 mg (n = 8)
# [6] = Part A single ascending dose, 360 mg (n = 6)
# [7] = Part A single ascending dose, 1,000 mg (n = 8)
# [8] = Part A single ascending dose, 2,000 mg (n = 8)
# [9] = Part B multiple ascending dose, 125 mg q12 h (n = 8)
# [10] = Part B multiple ascending dose, 500 mg q12 h (n = 8)
# [11] = Part B multiple ascending dose, 500 mg qd (n = 8)
# [12] = Part A, single doses above 1,000 mg
structure (smiles),measurement,setting,value
"O.O=C([O-])c1nn[nH]c1Oc1ccc(-c2ccc(C3CC(F)(F)C3)cc2)cc1.[Na+] [Compound 1a, sodium 5-((4′-(3,3-difluorocyclobutyl)-[1,1′-biphenyl]-4-yl)oxy)-1H-1,2,3-triazole-4-carboxylate monohydrate]",AEs leading to study discontinuation,[1]; Part A and Part B,no AEs leading to study discontinuation
same,dose-limiting toxicities,[1]; Part A and Part B,No dose-limiting toxicities were observed
same,intensity of AEs,[1]; Part A and Part B,all were mild to moderate in intensity
same,post dose electrocardiogram findings,[1]; Part A and Part B,nor were there clinically important post dose electrocardiogram findings
same,safety laboratory tests,[1]; Part A and Part B,no clinically significant changes or trends observed
same,serious or severe AEs,[1]; Part A and Part B,No serious or severe AEs were reported
same,AEs,[1]; [4],10
same,SAEs,[1]; [4],0
same,AEs,[1]; [5],1
same,SAEs,[1]; [5],0
same,AEs,[1]; [6],0
same,SAEs,[1]; [6],0
same,AEs,[1]; [7],4
same,SAEs,[1]; [7],0
same,AEs,[1]; [8],3
same,SAEs,[1]; [8],0
same,AEs,[1]; [9],6
same,SAEs,[1]; [9],0
same,AEs,[1]; [10],12
same,SAEs,[1]; [10],0
same,AEs,[1]; [11],1
same,SAEs,[1]; [11],0
same,tolerability,"[1]; single doses up to 3,000 mg and multiple doses up to 2,000 mg per day (1,000 mg qd)",well tolerated
same,time to inhibition of glycolate oxidase (GO) with increased plasma glycolate concentrations,glycolate oxidase (GO) [2]; FIG. 3 legend,≤ 2 h
same,mean maximal plasma glycolate concentrations (exceeded ULN),"glycolate oxidase (GO) [2]; Part A, all single doses 40 to 3,000 mg",> 14 µM
same,duration for which mean maximum plasma glycolate concentration was sustained,glycolate oxidase (GO) [2]; [12],24 h
same,mean maximum plasma glycolate concentration,glycolate oxidase (GO) [2]; [12],> 90 µM
same,levels of plasma glycolate compared with lumasiran,"glycolate oxidase (GO) [2]; Part B, all doses",significantly higher than those observed with lumasiran at 3 mg/kg or 6 mg/kg
same,Median time to recovery (plasma glycolate less than or equal to ULN),glycolate oxidase (GO) [2]; after a single dose,less than 72 hours
same,plasma glycolate concentrations at steady state,"glycolate oxidase (GO) [2]; steady state, multiple doses",comparable to those measured in case reports of individuals with germline HAO1 knockout
same,inhibition of GO,glycolate oxidase (GO) [3],up to 97%
